The values below come from article PMC9546217, “Exploring novel nitrofuranyl sulfonohydrazides as anti‐Leishmania and anti‐cancer agents: Synthesis, in vitro efficacy and hit identification” (Chemical Biology & Drug Design, 2022).

Read-outs that look alike come from different tables or passages of the source.

One data set deals with A375 melanoma cells. The data set is described as follows: Anticancer assay (resazurin). Type of data set: cell-based, human. The note with it: for IC50: n = 3, read-out: Anticancer activity, IC50 ± SD, A375. On the procedure:
(§1) The anticancer activities of synthesized compounds were evaluated using a resazurin‐based assay (Czekanska, [2011]). Accordingly, a screening method similar to that of the cytotoxicity assay was used to screen for anticancer activity, using human melanoma (A375), promyelocytic leukemia (Clone 15 HL‐60), lung cancer (A549), and breast cancer (MCF7) cells. The culture and assay methods are provided in the Supinfo S1.
(§2) The potential anticancer activities of synthesized compounds were screened using the resazurin assay. ^5 Breast adenocarcinoma (MCF7, ATCC® HTB-22™) and human melanoma (A375, ATCC® CRL-1619™) cells were cultured in Hyclone Dulbecco's modified Eagle’s medium with high glucose (Separations) supplemented with 10 % fetal bovine serum (FBS) (Thermofisher Scientific) and 1 % L-glutamine, penicillin-streptomycin and non-essential amino acids (Lonza). Human lung carcinoma (A549, ATCC®, CCL-185™) cells were cultured in Ham’s F12K medium supplemented with 10% FBS and 1% L-glutamine, penicillin-streptomycin and non-essential amino acids. Human promyelocytic leukemia (Clone 15 HL-60, ATCC® CRL-1946™) cells were cultured in RPMI-1640 medium (Sigma Aldrich) supplemented with 10% FBS and 1% penicillin-streptomycin. The cell lines were maintained in a humidified atmosphere at 37 °C and 5% CO2.
(§3) For the resazurin assay, 96 well plates were prepared with 100 μL of 100 000 cells/mL MCF7 cell suspension, 100 μL of 50 000 cells/mL A375 cell suspension, 100 μL of 25 000 cells/mL A549 cell suspension, or 50 μL of 50 000 cells/mL HL-60 cell suspension. The MCF7, A375 and A549 cell plates were incubated for 24 hours to allow adherence of the cells to the plate surface, after which the growth medium is replaced with 100 μL medium containing compounds. […] The cell lines were treated with: (i) parthenolide (Sigma Aldrich) (positive control); (ii) growth medium and solvent (negative control to compensate for possible solvent effects); (iii) growth medium and experimental compound solutions. […] Blanks contained growth medium without cells. The treated plates were incubated for 48 hours.
(§4) To initiate the resazurin assay, 50 μL of sterile-filtered resazurin sodium salt (Sigma Aldrich) solution (0.01 % in PBS) was added and the plates incubated for 2 hours (MCF7, A375 and A549 cells) or 24 hours (HL-60 cells). Absorbance was measured at 570 and 600 nm using the Thermofisher Scientific GO Multiscan plate reader. Data analysis was performed for each biological replicate using SkanIt 4.0 Research Edition software. Further data analysis, calculations and IC50 determinations were identical to that of the antileishmanial and cytotoxicity assays.
(§5) For the final IC50 of each compound, the mean IC50 of the biological replicates were calculated with standard deviation (SD).
(In general: Alamar Blue is a resazurin reagent that responds to reducing activity.)

Data set [1] concerns Clone 15 HL‐60 promyelocytic leukemia cells. The data set is described as follows: Anticancer assay (resazurin). Type of data set: cell-based, human. As to conditions: for IC50: read-out: Anticancer activity, IC50 ± SD, Clone 15 HL‐60; for Preliminary screening, growth inhibition, Clone 15 HL‐60: cutoff 50% growth inhibition at 10 μM; for Selectivity Index SI1 (anticancer): IC50 Vero (Table 2)/IC50 Clone 15 HL‐60. The procedure: as §1, §2, §3, §4, §5

For data set [2], the system named is Escherichia coli (ATCC 25922). More on the design: method as in Alsaeedi et al., [2015]. The note with it: diffusion method; ref Alsaeedi et al., [2015]; cited from earlier work.
Data set [3] has as its system Pseudomonas aeruginosa (ATCC 27853). More on the design: method as in Alsaeedi et al., [2015]. The note with it: diffusion method; ref Alsaeedi et al., [2015]; cited from earlier work.
The test system of data set [4] is Candida albicans (ATCC 10231). More on the design: method as in Alsaeedi et al., [2015]. As to conditions: diffusion method; ref Alsaeedi et al., [2015]; cited from earlier work.
Data set [5] has as its system L. donovani strains (1S and 9515) amastigotes. The data set is described as follows: Anti-amastigote selectivity, strain not separated. Type of data set: cell-based. As to conditions: strain not given. The procedure: The activities of synthesized compounds against the intramacrophage parasites of the three Leishmania strains were evaluated using a modified, resazurin‐based method (Jain et al., [2012]; Njanpa et al., [2021]). Suspension cultures of human acute monocytic leukemia (THP‐1) cells were maintained in RPMI‐1640 medium (Sigma Aldrich) supplemented with 10% FBS and 1% penicillin–streptomycin, at 37°C and 5% CO2 in a humidified atmosphere. Duplicate 96‐well plates (for respective anti‐amastigote and cytotoxicity assays) were seeded with 200 μl of a 2.5 × 10^5 cells/ml suspension treated with 25 ng/ml phorbol 12‐myristate 13‐acetate (PMA), followed by 48‐h incubation to promote differentiation into adherent macrophages.
For the anti‐amastigote assay, differentiated plates were carefully washed with PBS, followed by the addition of 200 μl of stationary phase promastigotes in RPMI 1640 medium with 2% FBS. An MOI of 30:1 was used for all three Leishmania strains. The parasite‐treated plates were incubated for 24 h at 32°C (L. major) or 37°C (L. donovani) and 5% CO2 to promote infection of the macrophages. […] Blanks were represented by growth medium without cells, as well as parasite‐free THP‐1 cells. The treated plates were incubated for 72 h.
After incubation, the plates were gently washed three times with PBS to remove any remaining extracellular parasites. The wells were then treated with 20 μl of 0.05% sodium dodecyl sulfate in PBS for 30 s to lyse the host macrophages. Lysis was terminated by adding 180 μl promastigote growth medium with 10% FBS. To initiate the resazurin assay, 10 μl of resazurin solution (0.025% in PBS) was added to all wells and the plates were incubated for 24 h at 32°C (L. major) or 37°C (L. donovani) and 5% CO2. Absorbance measurements, calculations, and IC50 determinations were performed as described for the antipromastigote assay (Supinfo S1).

For the next data set, the system named is THP‐1 cells. The data set is described as follows: Cytotoxicity on differentiated host THP-1 macrophages, resazurin assay. The note with it: differentiated THP-1 macrophages, 72 h; read-out: Cytotoxicity, IC50 ± SD, THP‐1. Type of data set: cell-based, human.
The test system of another data set is Vero cells. The data set is described as follows: in vitro.

For orientation: IC50 means the concentration that inhibits the measured activity by half. As for `Cc1ccc(S(=O)(=O)N/N=C/c2ccc([N+](=O)[O-])o2)cc1` [2c, (E)-4-Methyl-N'-[(5-nitrofuran-2-yl)methylene]benzenesulfonohydrazide], the half-inhibitory concentration (IC50) with A375 melanoma cells (Homo sapiens, A-375) is over 10 µM; in data set [1] (Homo sapiens, HL-60, n = 3) it was over 10 µM. In addition, the “Preliminary screening, growth inhibition, Clone 15 HL‐60” value in data set [1] is “qualified”. The “antimicrobial activity (inhibition zone)” value in data set [2], in data set [3] and in data set [4] was “no activity” each time.
In the case of `CC(C)c1ccc(S(=O)(=O)N/N=C/c2ccc([N+](=O)[O-])o2)cc1` [2d, (E)-4-Isopropyl-N'-[(5-nitrofuran-2-yl)methylene]benzenesulfonohydrazide], the IC50 was over 10 µM with A375 melanoma cells (Homo sapiens, A-375); under 10 µM in data set [1] (Homo sapiens, HL-60, n = 3); 7.85 ± 0.38 µM in data set [1] (n = 3). The “Selectivity Index SI1 (anticancer)” value in data set [1] is recorded as 3.
With `CC(C)(C)c1ccc(S(=O)(=O)N/N=C/c2ccc([N+](=O)[O-])o2)cc1` [2f, (E)-4-(tert-Butyl)-N'-[(5-nitrofuran-2-yl)methylene]benzenesulfonohydrazide], the half-inhibitory concentration (IC50) in the data set with A375 melanoma cells (Homo sapiens, A-375) is over 10 µM. Also, in data set [1], the “Selectivity Index SI1 (anticancer)” value was 6. For the same compound, in data set [5], the “selectivity index (SI) relative to the host THP‐1 cells” value is recorded as over 10 and the “selectivity index (SI) toward Vero cells” value is on record as under 10.
Consider `O=[N+]([O-])c1ccc(/C=N/NS(=O)(=O)c2ccc(-c3ccccc3)cc2)o1` [2h, (E)-N'-[(5-Nitrofuran-2-yl)methylene]-(1,1'-biphenyl)-4-sulfonohydrazide], for which the IC50 in the data set with A375 melanoma cells (Homo sapiens, A-375) was determined as 8.05 ± 0.57 µM. Further, the “Selectivity index SI2 (anticancer)” value with A375 melanoma cells (IC50 Vero (Table 2)/IC50 A375) was determined as 2. Further, the “Preliminary screening, growth inhibition, A375” value in the data set on A375 melanoma cells (cutoff 50% growth inhibition at 10 μM) is “qualified”. In data set [1], the “Selectivity Index SI1 (anticancer)” value came to 17 and the “Preliminary screening, growth inhibition, Clone 15 HL‐60” value is given as “qualified”. In addition, in data set [5], the “selectivity index (SI) relative to the host THP‐1 cells” value was over 10 and the “selectivity index (SI) toward Vero cells” value is on record as under 10.
As for `O=[N+]([O-])c1ccc(/C=N/NS(=O)(=O)c2cccc3c2OCCO3)o1` [2l, (E)-N'-[(5-Nitrofuran-2-yl)methylene]-2,3-dihydrobenzo[b][1,4]dioxine-5-sulfonohydrazide], the concentration for half-maximal inhibition (IC50) was over 10 µM in the data set on A375 melanoma cells (Homo sapiens, A-375) and over 10 µM in data set [1] (Homo sapiens, HL-60, n = 3). For the same compound, the “selectivity index (SI) relative to the host THP‐1 cells” value in data set [5] is reported as over 10. The “selectivity index (SI) toward Vero cells” value in data set [5] is recorded as under 10.
As for `O=Cc1ccc([N+](=O)[O-])o1` [NFA, 5‐nitro‐2‐furaldehyde, reference compound], the IC50 with THP‐1 cells is 80.9 ± 6.37 µM; in the data set with A375 melanoma cells (Homo sapiens, A-375) it was over 10 µM; in data set [1] (Homo sapiens, HL-60, n = 3) it was under 10 µM; in data set [1] (n = 3) it was 9.45 ± 0.61 µM. Besides, the “Selectivity Index SI1 (anticancer)” value in data set [1] was 2.
With `O=C1CN(/N=C/c2ccc([N+](=O)[O-])o2)C(=O)N1` [NFT, nitrofurantoin, reference compound], the IC50 with A375 melanoma cells (Homo sapiens, A-375) was over 10 µM; in data set [1] (Homo sapiens, HL-60, n = 3) it was over 10 µM.
For the compound `O=C(N/N=C/c1ccc([N+](=O)[O-])o1)c1ccc(O)cc1` [NFX, Nifuroxazide, reference compound], the IC50 in the data set on A375 melanoma cells (Homo sapiens, A-375) is over 10 µM; in data set [1] (Homo sapiens, HL-60, n = 3) it was 8.97 ± 0.47 µM. Besides, the “Selectivity Index SI1 (anticancer)” value in data set [1] is over 11.
“(E)-2,4,6-Trimethyl-N'-[(5-nitrofuran-2-yl)methylene]benzenesulfonohydrazide [2e]”: the half-inhibitory concentration (IC50) in the data set on Vero cells was 39.8 ± 5.89 µM; in the data set on THP‐1 cells, over 100 µM; with A375 melanoma cells, over 10 µM; in data set [1] (n = 3), over 10 µM. The “Preliminary screening, growth inhibition, Clone 15 HL‐60” value in data set [1] is reported as “qualified”. The “selectivity index (SI) relative to the host THP‐1 cells” value in data set [5] is on record as over 10. Besides, the “selectivity index (SI) toward Vero cells” value in data set [5] is given as under 10.
